Results: US20240218022A1, “ANTI-VISTA MACROCYCLIC PEPTIDES AND COMPOSITIONS” (BRISTOL-MYERS SQUIBB COMPANY, priority 2022, published 2024)
pIC50: −log10 of the molar value. Read-outs that look alike come from different tables or passages of the source. Starred links: 1 amine or outer side, 2 acyl side, 3 side chain; linkers in the order of their positions; H or OH if unused. Positions of bridges follow the written chain, without caps; N, C: chain ends. Non-standard residues stand in square brackets, D forms with d. Residues, ends and D or L forms follow the SMILES beside them. Phe(4-Me) = Cc1ccc(C[C@H](N)C(=O)O)cc1; γGlu = O=C(O)[C@H](CCC(=O)[*:2])N[*:1]; 2Nal = N[C@@H](Cc1ccc2ccccc2c1)C(=O)O; Ahp(2) = CCCCC[C@H](N)C(=O)O; NMeNle = CCCC[C@H](NC)C(=O)O; Tle = CC(C)(C)[C@H](N)C(=O)O; NMeV = CN[C@H](C(=O)O)C(C)C; NHexGly = CCCCCCNCC(=O)O; Nle = CCCC[C@H](N)C(=O)O; Aun = NCCCCCCCCCCC(=O)O; Abu = CC[C@H](N)C(=O)O; Dap = NC[C@H](N)C(=O)O; AEEA = NCCOCCOCC(=O)O

Target: T1, mouse VISTA (mVISTA) (Mus musculus, UniProt Q9D659)
T1 construct: expressed in transfected cells; host or cells: Human embryonic kidney 293T cells
T1 sequence (Q9D659 33-308): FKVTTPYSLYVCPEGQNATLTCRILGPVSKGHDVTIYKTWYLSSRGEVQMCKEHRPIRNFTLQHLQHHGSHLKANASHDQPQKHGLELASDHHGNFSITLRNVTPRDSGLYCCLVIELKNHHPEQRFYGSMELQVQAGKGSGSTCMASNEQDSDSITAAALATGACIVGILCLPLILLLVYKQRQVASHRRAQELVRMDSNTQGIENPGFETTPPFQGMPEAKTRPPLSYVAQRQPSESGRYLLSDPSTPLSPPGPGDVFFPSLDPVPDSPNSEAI
Assay: Cell-Based Binding High-Content Assay For mVISTA (HC CBA mVISTA)
Outline: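 mVISTA-293T, 4,000 cells/well; cpd ± washout step; biotin-peptide 2 nM final, 30 min RT; SA-Alexa 647 30 min; formaldehyde/Hoechst fix; HCS imaging; 4PL IC50.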

[1] = 293T cells expressing mouse VISTA, competition with biotinylated peptide (2 nM), read-out: HC CBA mVISTA IC50

Structure (SMILES) | pIC50 [1] | pIC50 (read-out: HC CBA mVISTA IC50) | further results
CCCCCCN1CC(=O)N[C@@H](Cc2ccc(O)cc2)C(=O)N[C@@H](CCCC)C(=O)N[C@@H](CC(N)=O)C(=O)N[C@@H](CCCNC(=N)N)C(=O)N(C)[C@@H](CCCC)C(=O)N[C@@H](CCCCC)C(=O)N2CCC[C@H]2C(=O)N[C@@H](C(C)C)C(=O)N[C@@H](CC(=O)O)C(=O)N[C@H](C(=O)N[C@@H](CCCCN)C(=O)N[C@@H](CC(N)=O)C(=O)O)CSCC(=O)N[C@@H](Cc2ccccc2)C(=O)N[C@@H](Cc2c[nH]c3ccccc23)C(=O)N[C@@H](CC(=O)O)C1=O [compound 1128] ({CH2CO}-FWD[NHexGly]Y[Nle]NR[NMeNle][Ahp(2)]PVDCKN-OH; thioether N-14) |  | 7.80 | 
CCCCCCN1CC(=O)N[C@@H](Cc2ccc(O)cc2)C(=O)N[C@@H](CC(C)C)C(=O)N[C@@H](CC(N)=O)C(=O)N[C@@H](CCCNC(=N)N)C(=O)N[C@@H](CC(C)C)C(=O)N[C@@H](CCCCC)C(=O)N2CCC[C@H]2C(=O)N[C@@H](C(C)C)C(=O)N[C@@H](CO)C(=O)N[C@H](C(=O)NCCOCCOCC(=O)N[C@@H](CC(=O)O)C(=O)NCCOCCOCC(=O)NCCCCCCCCCCC(=O)O)CSCC(=O)N[C@@H](Cc2ccccc2)C(=O)N[C@@H](Cc2ccc(O)cc2)C(=O)N[C@@H](CC(=O)O)C1=O [compound 2285] ({CH2CO}-FYD[NHexGly]YLNRL[Ahp(2)]PVSC[AEEA]D[AEEA][Aun]-OH; thioether N-14) |  |  | pIC50 (cell-based binding high-content assay, read-out: HC CBA miPrISTA IC50): 7.82
CCCCCCN1CC(=O)N[C@@H](Cc2ccc(O)cc2)C(=O)N[C@@H](CC(C)C)C(=O)N[C@@H](CC(N)=O)C(=O)N[C@@H](CCCNC(=N)N)C(=O)N(C)[C@@H](C(C)C)C(=O)N[C@@H](CCCCC)C(=O)N2CCC[C@H]2C(=O)N[C@@H](C(C)(C)C)C(=O)N[C@@H](CC(=O)O)C(=O)N[C@H](C(=O)NCCOCCOCC(=O)N[C@@H](CCC(=O)NCCOCCOCC(=O)NCCCCCCCCCCC(=O)O)C(=O)O)CSCC(=O)N[C@@H](Cc2ccccc2)C(=O)N[C@@H](Cc2ccc(O)cc2)C(=O)N[C@@H](CC(=O)O)C1=O [compound 2274] ({CH2CO}-FYD[NHexGly]YLNR[NMeV][Ahp(2)]P[Tle]DC[AEEA][γGlu][AEEA][Aun]-OH; thioether N-14) |  | 7.73 | 

The next lines start with results.

pIC50 [1] | pIC50 (read-out: HC CBA mVISTA IC50) | Structure (SMILES) | further results
7.45 |  | CCCCCCN1CC(=O)N[C@@H](Cc2ccc(O)cc2)C(=O)N[C@@H](C(C)C)C(=O)NCC(=O)N[C@@H](CCCNC(=N)N)C(=O)N[C@@H](CC(C)C)C(=O)N[C@@H](CCCCC)C(=O)N2CCC[C@H]2C(=O)N[C@@H](C(C)C)C(=O)N[C@@H](CC(=O)O)C(=O)N[C@H](C(=O)N[C@@H](CO)C(=O)N[C@@H](CN)C(=O)N[C@@H](CCC(N)=O)C(=O)O)CSCC(=O)N[C@@H](Cc2ccc3ccccc3c2)C(=O)N[C@@H](Cc2ccc(O)cc2)C(=O)N[C@@H](CC(=O)O)C1=O [Example 1162] ({CH2CO}-[2Nal]YD[NHexGly]YVGRL[Ahp(2)]PVDCS[Dap]Q-OH; thioether N-14) | 
7.82 |  | CCCCCCN1CC(=O)N[C@@H](Cc2ccc(O)cc2)C(=O)N[C@@H](CC)C(=O)NCC(=O)N[C@@H](CCCNC(=N)N)C(=O)N[C@@H](CC(C)C)C(=O)N[C@@H](CCCCC)C(=O)N2CCC[C@H]2C(=O)N[C@@H](C(C)C)C(=O)N[C@@H](CO)C(=O)N[C@H](C(=O)NCC(=O)O)CSCC(=O)N[C@@H](Cc2ccccc2)C(=O)N[C@@H](Cc2ccc(O)cc2)C(=O)N[C@@H](CC(=O)O)C1=O [Example 1062] ({CH2CO}-FYD[NHexGly]Y[Abu]GRL[Ahp(2)]PVSCG-OH; thioether N-14) | 
 | 7.63 | CCCCCCN1CC(=O)N[C@@H](Cc2ccc(O)cc2)C(=O)N[C@@H](CC(C)C)C(=O)N[C@@H](CC(N)=O)C(=O)N[C@@H](CCCNC(=N)N)C(=O)N(C)[C@@H](CCCC)C(=O)N[C@@H](CCCCC)C(=O)N2CCC[C@H]2C(=O)N[C@@H](C(C)C)C(=O)N[C@@H](CO)C(=O)N[C@H](C(=O)NCC(N)=O)CSCC(=O)N[C@@H](Cc2ccc(C)cc2)C(=O)N[C@@H](Cc2ccc(O)cc2)C(=O)N[C@@H](CC(=O)O)C1=O [compound 1214] ({CH2CO}-[Phe(4-Me)]YD[NHexGly]YLNR[NMeNle][Ahp(2)]PVSCG-NH2; thioether N-14) | 
